# Test results published in US6495525B1, “VLA-4 inhibitor: oMePUPA-V” (Biogen, Inc., priority 1998, dated 2002).
# What was measured:
# [1] = test system: sRBC-induced DTH model in mice; assay: sRBC-induced delayed type hypersensitivity, footpad swelling; format: in vivo; settings: 20 mg/kg enterally
# Description: Specific pathogen-free female Balb/c mice, aged 8-10 weeks, from Jackson Labs were used for all experiments. The animals were fed food and water ad libitum. Sheep red blood cells (sRBC) in Alsever's solution from the same sheep were obtained weekly from Charles River Pharm. Services (Southbridge, Mass.). The sRBC were pelleted by centrifugation at 1000 g for 10 minutes at 4° C. and any visible buffy coat removed. The cells were then washed in saline. The cell pellet was resuspended in saline and counted using a hemocytometer. The cells were diluted in phosphate buffered saline (PBS) to 2×10^8 sRBC per mL. On Day 0, mice were sensitized by a s.c. injection of 2×10^7 sRBC in 100 μL PBS. On Day 5, sRBC were prepared as above, but diluted in PBS to a final concentration of 4×10^9 sRBC per ml. Of this preparation, 25 μL was injected s.c. into the right rear footpad.
# For enteral administration of compound, oMePUPA-V (Lot #2770-029) was formulated in a vehicle of 60% PEG 400 in 0.02M TRIS to a stock concentration of 5 mg/mL. […]
# Swelling of unchallenged control (left) and challenged (right) rear footpads was measured using a tension caliper from Mitutoyo (Model #304-196, Dyer, Lancaster, Pa.) at 20 hours post-footpad challenge. The data are presented as the change in footpad thickness, determined by subtracting the left hind paw thickness from the right hind paw thickness. […]
# Solubility = format: physicochemical
structure (smiles),measurement,setting,value
Cc1ccccc1NC(=O)Nc1ccc(CC(=O)N2CCC[C@H]2C(=O)N[C@H](C)CC(=O)O)cc1 [oMePUPA-V],effect on footpad swelling (in words),[1],without effect
same,solubility in DMSO,Solubility; DMSO,soluble
same,solubility,Solubility; aqueous medium,120 µg/mL
